Measurements reported in patent publication US11680047B2, “Enhanced erythropoiesis and iron metabolism” (FibroGen, Inc., priority 2003, dated 2023).

How the values were obtained:
EPO production [1] = test: Secreted EPO (ELISA) in Hep3B cells treated with TNF-α; assay type: cell-based; conditions: for effect on suppression of EPO production by TNF-α: 2-hour pre-treatment with TNF-α, EPO 3 days after compound addition; for effect on inhibition of EPO production by TNF-α: compound in the presence of TNF-α (0.4-10 ng/ml); for effect on inhibition of EPO production by TNF-α / EPO production: 3 days; for EPO production: various concentrations of compound, absence of TNF-α
Protocol: (§1) Hep3B cells were treated with various concentrations (0, 0.4, 2, 10 ng/ml) of TNF-α in the absence or presence of compound A or compound B for 3 days. Secreted EPO levels were determined using a commercially available ELISA kit (R&D Systems, catalog no. DEP00). In the absence of compound, treatment of Hep3B cells with TNF-α reduced EPO production in a dose-dependent manner. […] Therefore, inhibitory effects of the inflammatory cytokine TNF-α on EPO production were overcome by inhibition of prolyl hydroxylase activity using compounds and methods of the present invention. […] Further, the methods and compounds of the present invention are useful to increase EPO production and, therefore, to treat anemia in a subject, for example, wherein the subject has a disorder associated with TNF-αQ such as acute or chronic inflammation or other anemia of chronic disease.
(§2) A series of experiments were performed to examine the effects of compounds of the present invention on EPO production following exposure of cells to the inflammatory cytokine TNF-α (i.e., in cells already exposed to TNF-α). In these experiments, TNF-α signaling would therefore be initiated prior to the addition of a prolyl hydroxylase inhibitor. Hep3B cells were treated with various concentrations (0, 0.4, 2, 10 ng/ml) of TNF-α for 2 hours, after which various concentrations of compound A or compound B were added to the cultured cells. Secreted EPO levels were determined as described above 3 days following compound addition.

EPO production [2] = test: Secreted EPO (ELISA) in Hep3B cells treated with IL-1β; assay type: cell-based; conditions: for effect on suppression of EPO production by IL-1β: 2-hour pre-treatment with IL-1β, EPO 3 days after compound addition; for effect on inhibition of EPO production by IL-1β: compound in the presence of IL-1β (0.4-10 ng/ml); for effect on inhibition of EPO production by IL-1β / EPO production: 3 days; for EPO production: various concentrations of compound, absence of IL-1β
Protocol: as §1, with “IL-1β” for “TNF-α”, “IL-1β” for “TNF-αQ”
as §2, with “IL-1β” for “TNF-α”, “IL-1β).” for “TNF-α).”

rat model of ACD = test: Rat model of ACD (PG-PS), Experimental Series 2; assay type: in vivo
Protocol: Female Lewis rats (approximately 150-200 gm) were injected with PG-PS (intra-peritoneal). Arthritis and anemia were allowed to develop for 28 days. Animals were administered compound A by oral gavage twice a week (Monday and Thursday) for six weeks, corresponding to days 28, 31, 35, 38, 42, 45, 49, 52, 56, 59, 63, 66, and 70 from PG-PS injection.
Whole blood was collected via the tail vein for CBC analysis on days 28, 42, 56, and 70. In addition, serum was collected on day 70 for iron binding analysis. CBC and iron binding analysis were performed by Quality Clinical Labs (Mountain View, Calif.).
Patients with anemia of chronic disease are clinically characterized by reduced plasma iron concentrations and transferrin saturation. The effect of the present compounds on serum iron and transferrin saturation in normal and anemic animals was determined. Using an animal model of anemia of chronic disease, anemia was induced in rats by IP injection of peptidoglycan-polysaccharide polymers, as described above. Arthritis and anemia were allowed to develop for 28 days. Animals were then treated with various concentrations of compound A, twice weekly, for 6 weeks. Serum iron levels and transferrin saturation were determined by Quality Clinical Labs.

transferrin receptor [3] = test: Transferrin receptor expression by FACS (CD71-PE antibody) in Hep3B cells; assay type: cell-based; conditions: 1 day
Protocol: (§3) The effect of compounds of the invention on transferrin receptor expression was examined as follows. Various cells (Hep3B, HepG2, HK-2) were incubated with compound A or compound B for 1 day. The cells were then analyzed for transferrin receptor expression by FACS analysis using CD71-PE antibody (Ancell, catalog no. 223-050).

transferrin receptor [4] = test: Transferrin receptor expression by FACS (CD71-PE antibody) in HK-2 cells; assay type: cell-based; conditions: HK-2, 1 day
Protocol: as §3

transferrin receptor [5] = test: Transferrin receptor expression by FACS (CD71-PE antibody) in HepG2 cells; assay type: cell-based; conditions: HepG2, 1 day
Protocol: as §3

EPO production [6] = test: Secreted EPO (ELISA) in Hep3B cells treated with IL-6; assay type: cell-based; conditions: for effect of compound treatment on EPO production in the presence of IL-6: compound plus IL-6
Protocol: Secreted EPO levels were determined using a commercially available ELISA kit (R&D Systems, catalog no. DEP00). […] As shown in FIGS. 27A and 27B, Hep3B cells treated with IL-6 increased EPO expression slightly above that in non-treated cells. Specifically, EPO levels in control cells was approximately 20 mIU/ml, while that in cells treated with 10 ng/ml IL-6 was approximately 50 mIU/ml.

NRAMP2 = NRAMP2 mRNA in small intestine of mice after IV administration (microarray); assay type: in vivo, mouse; conditions: 60 mg/kg IV, 4 hours
Protocol: In another experiment, mRNA was isolated from small intestine harvested 4 hours following IV administration of 60 mg/kg compound A, compound B, and compound C to mice. Probes were prepared from each of two animals from 5 treatment groups, and hybridized to Affymetrix mouse MOE430Aplus2 microarrays (one animal per array). Statistical comparisons of data obtained from arrays from treated versus non-treated animals was performed. […] Expression levels are shown as fold-induction over control, untreated animals for each expressed gene.

VCAM-1 = test: IL-1β induced VCAM-1 expression in HUVEC; assay type: cell-based, human; conditions: IL-1β 1 ng/ml, 1 day
Protocol: To investigate the effect of HIF prolyl hydroxylase inhibition on IL-1β induced VCAM-1 expression, HUVEC (human umbilical vein endothelial cells) were stimulated with IL-1β in the absence or presence of various concentrations of compound B or compound C for 1 day. VCAM expression was then measured.

[7] = anemic rats, twice a week for six weeks
[8] = 10 µM compound, absence of IL-6
[9] = compound in the presence of 10 ng/ml IL-6

Compound | effect on suppression of EPO production by TNF-α (EPO production [1]) | effect on inhibition of EPO production by TNF-α (EPO production [1]) | EPO production (EPO production [1]) | effect on suppression of EPO production by IL-1β (EPO production [2]) | effect on inhibition of EPO production by IL-1β (EPO production [2]) | EPO production (EPO production [2]) | Mean FL (transferrin receptor) (transferrin receptor [3]) | Mean FL (transferrin receptor) (transferrin receptor [4]) | Mean FL (transferrin receptor) (transferrin receptor [5]) | EPO levels (EPO production [6]; [8]) | EPO levels (EPO production [6]; [9]) | effect of compound treatment on EPO production in the presence of IL-6 (EPO production [6]) | EPO levels (EPO production [6]; compound without IL-6) | NRAMP2 mRNA expression in small intestine (NRAMP2) | further results
O=C(O)CNC(=O)c1nc(Cl)c2ccccc2c1O [Compound A, [(1-Chloro-4-hydroxy-isoquinoline-3-carbonyl)-amino]-acetic acid] | overcame the suppressive effects of TNF-α on EPO production | greatly reduced the inhibitory effects of TNF-α on EPO production | dose-dependent increase in EPO production | overcame the suppressive effects of IL-1 on EPO production | greatly reduced the inhibitory effects of IL-1β on EPO production | dose-dependent increase in EPO production | 40.89 | 12.20 | 56.52 | approximately 60 mIU/ml | approximately 270 mIU/ml | synergistic | increased EPO levels in a dose-dependent manner | increasing expression of NRAMP2 in intestine | serum iron levels (rat model of ACD; anemic (PG-PS) and non-anemic control (sham) rats, twice weekly, 6 weeks): increased serum iron levels; hemoglobin levels (rat model of ACD; anemic rats, 10 mg/kg, 20 mg/kg or 40 mg/kg twice weekly): hemoglobin levels increased; red blood cell counts (rat model of ACD; anemic rats, from 2 weeks, over the 6 week period): red blood cell counts were increased; hematocrit levels (rat model of ACD; anemic rats, oral gavage twice a week): increased hematocrit levels; mean corpuscular hemoglobin levels (rat model of ACD; [7]): reduction in the decrease in mean corpuscular hemoglobin levels; mean corpuscular volume (rat model of ACD; [7]): reduction of the decrease in mean corpuscular volume; hemoglobin levels (rat model of ACD; non-anemic rats, 40 mg/kg twice a week): approximately 110 % of that in non-treated control animals; hematocrit levels (rat model of ACD; non-challenged (non-anemic) rats, 40 mg/kg twice a week): greater than 110 % of that in non-challenged non-treated animals; transferrin saturation (rat model of ACD; vs non-treated non-anemic and non-treated anemic rats, twice weekly, 6 weeks): increased transferrin saturation
O=C(O)CNC(=O)c1ncc2cc(Oc3ccccc3)ccc2c1O [Compound B, [(4-Hydroxy-7-phenoxy-isoquinoline-3-carbonyl)-amino]-acetic acid] | overcame the suppressive effects of TNF-α on EPO production | greatly reduced the inhibitory effects of TNF-α on EPO production | dose-dependent increase in EPO production | overcame the suppressive effects of IL-1 on EPO production | greatly reduced the inhibitory effects of IL-1β on EPO production | dose-dependent increase in EPO production | 42.43 | 18.92 | 53.53 | ~220 mIU/ml | greater than 400 mIU/ml | synergistic | increased EPO levels in a dose-dependent manner | increasing expression of NRAMP2 in intestine | inhibition of IL-1β induced VCAM-1 expression (VCAM-1): does-dependent inhibition of IL-1β induced VCAM-1 expression
